As a reminder, the Kd is a measure of binding affinity in units of concentration. Read a low Kd as higher affinity.

Experimental findings from article PMC4667280, “Crystal structure of FadD32, an enzyme essential for mycolic acid biosynthesis in mycobacteria” (Scientific Reports, 2015) are described below.

In the test the target is T1, MsFadD32 (full-length FadD32 from M. smegmatis) (Mycolicibacterium smegmatis, UniProt A0R618).
T1 construct: full-length (N-terminal domain 1-483, C-terminal domain 484-630), expressed in E. coli BL21(DE3) as SUMO (SMT3) fusion; crystal of the SUMO fusion
T1 sequence (A0R618 1-630): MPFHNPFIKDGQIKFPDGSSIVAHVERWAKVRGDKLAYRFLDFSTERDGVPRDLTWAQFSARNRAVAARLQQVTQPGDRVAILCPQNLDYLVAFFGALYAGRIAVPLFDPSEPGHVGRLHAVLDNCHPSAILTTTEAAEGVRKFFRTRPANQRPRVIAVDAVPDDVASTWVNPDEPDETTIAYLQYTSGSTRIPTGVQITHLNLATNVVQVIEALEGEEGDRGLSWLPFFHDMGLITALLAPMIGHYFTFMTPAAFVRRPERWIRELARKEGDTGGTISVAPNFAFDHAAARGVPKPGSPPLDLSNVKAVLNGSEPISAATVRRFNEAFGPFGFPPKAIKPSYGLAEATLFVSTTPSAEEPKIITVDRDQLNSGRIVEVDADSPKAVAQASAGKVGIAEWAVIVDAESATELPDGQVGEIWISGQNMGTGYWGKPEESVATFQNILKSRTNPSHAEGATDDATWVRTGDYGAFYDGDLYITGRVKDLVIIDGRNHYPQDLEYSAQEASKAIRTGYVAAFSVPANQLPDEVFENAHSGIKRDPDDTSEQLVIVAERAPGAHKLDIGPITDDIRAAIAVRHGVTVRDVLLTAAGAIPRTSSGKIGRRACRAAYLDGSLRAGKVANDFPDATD
As to the kind of experiment: isothermal titration calorimetry; crystal structure of the complex at […] Å. The test is classed as binding. For orientation: In ITC the heat of successive injections is recorded.

The molecule `Nc1ncnc2c1ncn2[C@@H]1O[C@H](COP(=O)(O)OP(=O)(O)OP(=O)(O)O)[C@@H](O)[C@H]1O` [ATP] gave a Kd of about 36 µM.
